Experimental data published in US20260265221A1, “PARP INHIBITOR, AND PREPARATION METHOD THEREFOR AND MEDICAL USE THEREOF” (WIGEN BIOMEDICINE TECHNOLOGY (SHANGHAI) CO., LTD., priority 2023, published 2026).
pIC50: −log10 of the molar value.

Experiments:
[1] = tested on: MDA-MB-436 cells; assay: In vitro inhibition of MDA-MB-436 cell proliferation (CTG, 10 days); assay type: cell-based; details: Homo sapiens, MDA-MB-436, 240 h, 10 days incubation, read-out: Inhibitory activity against MDA-MB-436 cells (IC50)
Method: MDA-MB-436 cells were seeded in a 96-well low-adsorption plate at 1200 cells/well. After the cells adhered to the wall overnight, the serially diluted compound was added, and the cells were incubated for another 10 days. The ATP level of the cells was then determined by CTG to evaluate the cell growth. The growth inhibition percentages and IC50 of the compounds were calculated compared to the DMSO group.

[2] = In vitro liver microsomal stability, human; assay type: in vitro ADME; details: 1 μM compound, 500 μg/mL liver microsomes, NADPH
[3] = In vivo pharmacokinetic experiment in CD-1 mice; details: mouse, plasma, CD-1 female mice; for Vd: read-out: Vdss
Method: CD-1 female mice aged 7 to 10 weeks were intravenously administered and orally administered at doses of 1 mg/kg and 10 mg/kg, respectively.
On the day of the experiment, animals in the intravenous group were given the corresponding compound by single injection via the tail vein at an administration volume of 2 mL/kg, and animals in the oral group were given the corresponding compound by single intragastric injection at an administration volume of 10 mL/kg. The animals were weighed before administration, and their administration volume was calculated according to their body weight. […] About […] of whole blood was collected through the orbital venous plexus at each time point and used to prepare plasma for concentration determination by high performance liquid chromatography-tandem mass spectrometry (LC-MS/MS). All animals were suffocated by CO2 after the PK samples were collected at the last time point. The plasma concentrations were processed using a non-compartmental model of Winnolin™ version 8.2 (Pharsight, mountain View, CA) pharmacokinetic software, and the pharmacokinetic parameters were calculated using a linear-log trapezoidal method.

[4] = tested on: MDA-MB-436 xenograft tumor; assay: In vivo efficacy in MDA-MB-436 xenograft tumor model; set-up: species or system mouse; details: for Tumor growth inhibition rate: after 28 days
Method: MDA-MB-436 cells were subjected to adherent culture in an L-15 medium containing 10% fetal bovine serum and 1% AA at 37° C. with 5% CO2. The cells were digested with trypsin and routinely passaged twice a week. When cells were maintained in the exponential growth phase with viability greater than 95%, the cells were collected, counted, and inoculated. Each 6- to 8-week-old female BALB/c nude mouse was inoculated with 10×10^6 MDA-MB-436 cells+Matrigel in a volume of 0.2 mL in the right cervicodorsal region. […] The compounds were orally administered once a day, and the tumor volume and body weight of the mice were measured twice a week. After 28 days of administration, the mice were sacrificed. Data were processed using software such as Excel.

[5] = In vitro liver microsomal stability, mouse; assay type: in vitro ADME; details: 1 μM compound, 500 μg/mL liver microsomes, NADPH
[6] = 0 days (start of administration), BALB/c nude mice
[7] = 28 days, oral once a day, […] day 1-7 and 3 mg/kg day 8-28
[8] = oral once a day, […] day 1-7 and 3 mg/kg day 8-28

Structure (SMILES) | pIC50 [1] | half-life at 1 μM [2] | AUC(0-t) ([3]; iv, Injection (1 mg/kg)) | clearance ([3]; iv, Injection (1 mg/kg)) | half-life ([3]; iv, Injection (1 mg/kg)) | Vd ([3]; iv, Injection (1 mg/kg)) | AUC(0-t) ([3]; Oral administration (10 mg/kg)) | Cmax ([3]; Oral administration (10 mg/kg)) | Tmax ([3]; Oral administration (10 mg/kg)) | bioavailability ([3]; Oral administration (10 mg/kg)) | half-life ([3]; Oral administration (10 mg/kg)) | Mean tumor volume [4, 6] | Mean tumor volume [4, 7] | Tumor growth inhibition rate [4, 8] | half-life at 1 μM [5]
CNC(=O)c1ccc(N2CCN(Cc3ccc4nc(C)c(=O)[nH]c4c3F)CC2)c(F)n1 [AZD9574, reference compound] | 8.05 | 1.72 h | 2550 ng·h/mL | 6.42 mL/min/kg | 4.54 h | 2.03 L/kg | 25400 ng·h/mL | 5140 ng/mL | 0.5 h | 99.5% | 4.37 h | 212 mm^3 | 126 mm^3 | 141% | 2.1 h
Cc1nc2ccc(CN3CCN(c4ccc(C(=O)N[C@H]5C[C@H]5F)nc4F)CC3)cc2[nH]c1=O [Compound 1] | 8.80 | 8.23 h | 3680 ng·h/mL | 4.52 mL/min/kg | 3.13 h | 1.13 L/kg | 60800 ng·h/mL | 14800 ng/mL | 0.17 h | 166% | 2.08 h | 212 mm^3 | 87 mm^3 | 159% | 4.88 h
Cc1nc2ccc(CN3CCN(c4ccc(C(=O)N[C@@H]5C[C@@H]5F)nc4F)CC3)cc2[nH]c1=O [Compound 2] | 8.62 | 3.88 h | 2120 ng·h/mL | 7.7 mL/min/kg | 1.48 h | 0.76 L/kg | 30900 ng·h/mL | 10600 ng/mL | 0.5 h | 146% | 1.71 h | – | – | – | 5.15 h
CCc1nc2ccc(CN3CCN(c4ccc(C(=O)N[C@@H]5C[C@@H]5F)nc4F)CC3)cc2[nH]c1=O [Compound 6] | 8.59 | – | – | – | – | – | – | – | – | – | – | – | – | – | –
Cc1nc2ccc(CN3CCN(c4ccc(C(=O)NC5CC5)nc4F)CC3)cc2[nH]c1=O [Compound 9] | 8.43 | 3.8 h | 3590 ng·h/mL | 4.62 mL/min/kg | 3.41 h | 0.73 L/kg | 60800 ng·h/mL | 16000 ng/mL | 0.08 h | 192% | 1.89 h | 212 mm^3 | 185 mm^3 | 113% | 9.43 h
Cc1nc2ccc(CN3CCN(c4ccc(C(=O)NC5CC5)nc4F)CC3)c(F)c2[nH]c1=O [Compound 10] | 7.80 | 1.67 h | 2170 ng·h/mL | 7.5 mL/min/kg | 5.07 h | 2.38 L/kg | 20400 ng·h/mL | 4530 ng/mL | 0.17 h | 93% | 3.8 h | – | – | – | 14.4 h
CCc1nc2ccc(CN3CCN(c4ccc(C(=O)N[C@H]5C[C@H]5F)nc4F)CC3)cc2[nH]c1=O [Compound 11] | 8.77 | – | – | – | – | – | – | – | – | – | – | – | – | – | –
